Data taken from ChEMBL document CHEMBL1138410, “SAR studies of 3-arylpropionic acids as potent and selective agonists of sphingosine-1-phosphate receptor-1 (S1P1) with enhanced pharmacokinetic properties” (Bioorg Med Chem Lett, 2007).
Values joined by “and” are separate entries in the source; they are usually repeats but may differ in a detail not shown here. Identical values can stand only once.

Key:
Mus musculus = assay: Effect on peripheral lymphocyte lowering in orally dosed mouse; type: functional
[1] = (§1) Volume of distribution at steady state in Sprague-Dawley rat at 1.0 mg/kg, iv or 2.0 mg/kg, po; type: ADME, organism-based; conditions: Sprague-Dawley, in vivo, read-out: Vdss
[2] = (§2) Half life in Sprague-Dawley rat at 1.0 mg/kg, iv or 2.0 mg/kg, po; type: ADME, organism-based; conditions: Sprague-Dawley, in vivo
[3] = (§3) Bioavailability in Sprague-Dawley rat at 2.0 mg/kg, po; type: ADME, organism-based; conditions: Sprague-Dawley, in vivo
[4] = molecular target: Sphingosine 1-phosphate receptor 3 (Homo sapiens, UniProt Q99500); assay: […] of [35S]GTP-gamma-S from human S1P3 receptor expressed in CHO cells; type: functional, cell-based
[5] = molecular target: T1, Sphingosine 1-phosphate receptor 4 (Homo sapiens, UniProt O95977); assay: Displacement of [33P]S1P from human S1P4 receptor expressed in CHO cells; type: cell-based
T1 sequence (O95977 whole entry): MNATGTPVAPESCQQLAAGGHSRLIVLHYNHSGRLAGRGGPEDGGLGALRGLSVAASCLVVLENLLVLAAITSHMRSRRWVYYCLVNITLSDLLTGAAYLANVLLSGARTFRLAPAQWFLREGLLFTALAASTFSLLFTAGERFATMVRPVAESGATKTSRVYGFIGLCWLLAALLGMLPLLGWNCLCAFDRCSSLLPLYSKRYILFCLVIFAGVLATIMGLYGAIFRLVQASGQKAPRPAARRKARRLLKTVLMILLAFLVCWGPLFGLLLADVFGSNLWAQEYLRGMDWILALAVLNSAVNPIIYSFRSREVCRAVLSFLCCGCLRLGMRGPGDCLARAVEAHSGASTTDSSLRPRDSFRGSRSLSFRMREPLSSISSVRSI

[6] = molecular target: Sphingosine 1-phosphate receptor 2 (Homo sapiens, UniProt O95136); assay: Displacement of [33P]S1P from human S1P2 receptor expressed in CHO cells; type: cell-based
[7] = Plasma clearance in Sprague-Dawley rat at 1.0 mg/kg, iv or 2.0 mg/kg, po; type: ADME, organism-based
[8] = molecular target: Sphingosine 1-phosphate receptor 5 (Homo sapiens, UniProt Q9H228); assay: […] of [35S]GTP-gamma-S from human S1P5 receptor expressed in CHO cells; type: functional, cell-based
[9] = molecular target: Sphingosine 1-phosphate receptor 1 (Homo sapiens, UniProt P21453); assay: […] of [35S]GTPgammaS from human S1P1 receptor expressed in CHO cells; type: functional, cell-based
Rattus norvegicus [10] = assay: as §1; type: ADME, organism-based; conditions: in vivo
Rattus norvegicus [11] = assay: as §2; type: ADME, organism-based; conditions: in vivo
Rattus norvegicus [12] = assay: as §3; type: ADME, organism-based; conditions: in vivo
[13] = Mus musculus, po, read-out: ED50

Sphingosine 1-phosphate receptor 5, sequence (Q9H228 whole entry): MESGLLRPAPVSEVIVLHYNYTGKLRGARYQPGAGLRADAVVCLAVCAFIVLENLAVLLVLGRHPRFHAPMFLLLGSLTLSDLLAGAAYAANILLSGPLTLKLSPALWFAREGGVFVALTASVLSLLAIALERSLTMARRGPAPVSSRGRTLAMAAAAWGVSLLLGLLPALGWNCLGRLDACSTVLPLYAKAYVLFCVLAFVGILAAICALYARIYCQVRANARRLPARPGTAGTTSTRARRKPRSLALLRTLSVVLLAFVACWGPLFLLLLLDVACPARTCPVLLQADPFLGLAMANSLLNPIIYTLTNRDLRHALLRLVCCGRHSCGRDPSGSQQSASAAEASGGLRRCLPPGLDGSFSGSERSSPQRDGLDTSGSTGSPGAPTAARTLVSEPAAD
Sphingosine 1-phosphate receptor 3, sequence (Q99500 whole entry): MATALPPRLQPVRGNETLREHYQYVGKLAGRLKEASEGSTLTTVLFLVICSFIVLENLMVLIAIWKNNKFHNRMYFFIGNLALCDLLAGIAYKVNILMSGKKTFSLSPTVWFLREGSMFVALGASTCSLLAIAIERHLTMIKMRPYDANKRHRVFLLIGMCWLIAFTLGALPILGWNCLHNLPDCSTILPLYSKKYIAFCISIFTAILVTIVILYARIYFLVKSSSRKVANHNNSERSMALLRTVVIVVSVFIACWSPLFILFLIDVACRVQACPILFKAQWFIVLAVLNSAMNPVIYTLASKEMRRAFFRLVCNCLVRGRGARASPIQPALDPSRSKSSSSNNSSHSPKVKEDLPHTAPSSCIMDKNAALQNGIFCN
Sphingosine 1-phosphate receptor 1, sequence (P21453 whole entry): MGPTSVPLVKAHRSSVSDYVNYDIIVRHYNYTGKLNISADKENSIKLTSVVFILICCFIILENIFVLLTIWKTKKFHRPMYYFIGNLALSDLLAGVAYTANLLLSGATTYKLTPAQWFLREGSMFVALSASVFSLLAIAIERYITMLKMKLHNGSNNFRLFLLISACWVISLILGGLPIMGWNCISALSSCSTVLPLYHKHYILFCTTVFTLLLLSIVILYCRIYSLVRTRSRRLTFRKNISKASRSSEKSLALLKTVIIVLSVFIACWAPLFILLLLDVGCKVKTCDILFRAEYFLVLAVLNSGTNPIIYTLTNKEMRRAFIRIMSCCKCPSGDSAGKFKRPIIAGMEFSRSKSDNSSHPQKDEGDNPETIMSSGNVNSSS
Sphingosine 1-phosphate receptor 2, sequence (O95136 whole entry): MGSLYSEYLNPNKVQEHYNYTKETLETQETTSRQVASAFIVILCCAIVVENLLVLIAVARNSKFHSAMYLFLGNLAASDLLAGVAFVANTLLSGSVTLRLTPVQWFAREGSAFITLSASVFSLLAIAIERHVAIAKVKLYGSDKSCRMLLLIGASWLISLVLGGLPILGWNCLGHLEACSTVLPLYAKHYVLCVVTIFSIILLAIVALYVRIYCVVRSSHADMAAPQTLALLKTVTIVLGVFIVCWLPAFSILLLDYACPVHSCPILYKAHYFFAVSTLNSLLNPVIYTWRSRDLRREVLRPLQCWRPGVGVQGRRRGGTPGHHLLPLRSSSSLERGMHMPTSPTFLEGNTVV

Row | SMILES | Vd [1] [L/kg] | half-life [2] [h] | bioavailability [3] [%] | EC50 [4] | IC50 [5] [nM] | IC50 [6] [nM] | clearance [7] [mL/min/kg] | EC50 [8] [nM] | EC50 [9] | Vdss (Rattus norvegicus [10]) | t1/2 (Rattus norvegicus [11]) [h] | F (Rattus norvegicus [12]) [%] | ED50 (Mus musculus; [13]) [mg/kg] | ED50 (Mus musculus) [mg/kg]
1 | Cc1cc(CC(C)C(=O)O)ccc1-c1noc(-c2ccc(OC(C)C)c(C(F)(F)F)c2)n1 (stereo not drawn) | 1.5 | 1.7 | 82 | 400 nM | > 10000 | > 10000 | 7 | 9.9 | 0.3 nM | – | – | – | 0.1 | –
2 | Cc1cc([C@@H]2C[C@H]2C(=O)O)ccc1-c1noc(-c2ccc(OC(C)C)c(C#N)c2)n1 | – | 4.9 | 84 | 2660 nM and 2600 nM and > 10000 nM | > 10000 | > 10000 | – | – | 0.93 nM and 0.31 nM | 1 L/kg and 0.4 L/kg | 5.9 | 90 | 0.3 | 0.2
3 | Cc1cc([C@H]2C[C@H]2C(=O)O)ccc1-c1noc(-c2ccc(OC(C)C)c(C#N)c2)n1 | 0.7 | 7.4 | 89 | > 1000 nM | > 10000 | > 10000 | 1.2 | 37.7 | 0.8 nM | – | – | – | 0.7 | –

More lines, main results first:

Row | Vd [1] [L/kg] | half-life [2] [h] | bioavailability [3] [%] | EC50 [4] | IC50 [5] [nM] | IC50 [6] [nM] | clearance [7] [mL/min/kg] | EC50 [8] [nM] | EC50 [9] | Vdss (Rattus norvegicus [10]) | t1/2 (Rattus norvegicus [11]) [h] | F (Rattus norvegicus [12]) [%] | SMILES | ED50 (Mus musculus; [13]) [mg/kg] | ED50 (Mus musculus) [mg/kg]
4 | 0.6 | 3.1 | 100 | 184 nM | > 10000 | > 10000 | 2.9 | 3.9 | 0.12 nM | – | – | – | Cc1cc(C(C)CC(=O)O)ccc1-c1noc(-c2ccc(OC(C)C)c(C(F)(F)F)c2)n1 (stereo not drawn) | 0.1 | –
5 | 1.1 | 6.3 | 88 | 123 nM | > 10000 | > 10000 | 2.4 | 5.1 | – | – | – | – | Cc1cc([C@@H]2C[C@H]2C(=O)O)ccc1-c1noc(-c2ccc(OC(C)C)c(C(F)(F)F)c2)n1 | 0.2 | –
6 | 0.3 | 2.4 | 93 | 2760 nM | > 10000 | > 10000 | 1.2 | 28.6 | 0.44 nM | – | – | – | Cc1nc(CCC(=O)O)ccc1-c1noc(-c2ccc(OC(C)C)c(C#N)c2)n1 | 0.2 | –
7 | – | – | – | – | > 10000 | > 10000 | – | – | 0.08 nM | – | – | – | Cc1cc(CCC(=O)O)ccc1-c1noc(-c2ccc(OC(C)C)c(C(F)(F)F)c2)n1 | 0.3 | –
8 | – | – | – | – | > 10000 | > 10000 | – | – | 0.08 nM | – | – | – | Cc1cc(CCC(=O)O)ccc1-c1noc(-c2ccc(OC(C)C)c(C#N)c2)n1 | 0.1 | –
